# According to patent publication US20030073654A1, “Stabilized transient gene expression” (Genespan Corporation, priority 1996, published 2003):
# Several values for one entry are separate records, joined by “and”; a condition that tells them apart may be missing. Identical values can stand only once. Entries after “also recorded” stand apart in the source; their conditions may differ. Like-named read-outs stand apart in the source and are kept apart here. Marks after values point to notes of the source that are not given here.
# Key:
# [1] = tested on: SW480 P3 (ATCC #CCL228) human colon carcinoma cells; assay: Screening assay for enhancement of transient expression (β-galactosidase gene, liposomal transfection, 6-well plates); assay type: cell-based; details: for G Factor (G14): Table 1, values without asterisk, days 4-14 after transfection; for X Factor / K Factor: Table 1; for X Factor: cumulative β-galactosidase vs control, first four days after transfection, compound at the mM given in the table; for K Factor: ratio of first order rate constants of change in expression, control vs compound; for effect on transient expression when present before or during the transfection step: polyanionic carbohydrates, liposomal transfection
# Text: These parameters are called the “X” factor, the “G” factor, and the “K” factor. [formula]
# This factor reflects the extent to which a chemical compound added to a transfected cell enhances stabilizes transient expression for the first four days following transfection. […] For example, if expression is doubled in the presence of a compound, […]. […] X may be calculated similarly when the agent in question is a mixture of more than one chemical compound.
# Cumulative protein expression, i.e., the values for “A” and “C”, is measured by summing the values measured daily in aliquots of the cultured cells.
# 2. G factors. G factors differ from the X factor only with respect to the time period evaluated. For calculating a G factor, the amount of protein expressed is measured from days 4-7 or days 4-14, where day 0 is the day on which the foreign DNA is added to the cells. The subscripts denote which of the two time periods provided the basis for measurement. […] As for the X factor, [formula]
# 3. K factor. The K factor is the ratio of the rate constants for the change in the foreign DNA expression in control transfected cells and in cells exposed to a chemical compound of the subject invention. K is determined according to the following equation: [formula]
# wherein “k(DNA)” is the first order rate constant for the change in concentration of the protein expressed from the transgenic DNA, which is expressing protein as a function of time, i.e., [formula]
# Values for k(DNA) are derived by using a computer program that plots the log of the foreign protein concentration against time, using the results of transgenic protein measurements that begin about 24 hours after the foreign DNA has been added to the cell. […] However, the program calculates a “best fit” line for each data set, and determines the slope of that portion of the resulting line that corresponds to the period during which protein production is changing. […] Thus, the slope is calculated during this period of decline to provide values for k(DNA) and K that can be compared for the purpose of comparing the efficacy of different chemical compounds.
# SW480 P3 (ATCC #CCL228) human colon carcinoma cells (typically, 1×10^6 cells) were plated in the wells of a 6-well tissue culture plate. The number of wells plated reflected the number of days post-transfection during which the experiment would proceed. Each well contained 1 ml of complete media from a 30 ml stock solution containing: 26.4 ml RPMI tissue culture medium, 4 mM L-glutamine, 3.0 ml fetal bovine serum, and 10 μg/ml gentamicin. Cells were cultured at 37° C. in a CO2 incubator with 10% CO2 for 24 hours after being plated, during which time the cells adhered to the plates.
# After the 24 hour pre-incubation step, the transfection step was carried out by removing the RPMI and adding 900 μL OPTI-MEM® (Gibco) medium containing 2 μg of VR1412 DNA (Vical, Inc., San Diego, Calif.), which expresses the bacterial β-galactosidase gene under the control of a cytomegalovirus promoter, and 8 μg of a mixture of cationic lipid (1,2-dimyristyloxyproply-3-dimethyl-hydroxyethyl ammonium bromide (e.g., “DMRIE/DOPE”) mixed in equimolar proportions with dioleoylphosphatidylethanolamine) to yield a lipid:DNA molar ratio of 0.99:1. It should be noted that typical transient transfection protocols employ 10 μg DNA per 10^6 cells, but the protocol described here uses less DNA in order to reduce toxicity to the cells. The plates were then incubated for 4 hours at 37° C.
# After the 4 hour incubation step, 100 μl of heat deactivated fetal bovine serum (to stop transfection), plus 12.0 μl of 50 mg/ml gentamicin were added to each well.
# [2] = pH of aqueous solutions of the compounds; assay type: physicochemical; details: stock solutions prepared in culture media diluted with deionized water
# Description: The pH values shown in Table 1 were determined in aqueous solutions made by diluting stock solutions prepared in culture media with deionized water.
# [3] = Table 1, values marked with asterisk, days 4-7 after transfection
Molecule,G Factor (G14) [1],X Factor [1],pH (H20) [2],also measured
NC(=O)NC(CC(=O)O)C(=O)O (racemic) [N-CARBAMYL-DL-ASPARTIC ACID],115,26,4.19,
Nc1cccc(S(=O)(=O)O)c1 [3-AMINO BENZENE SULFONIC ACID],32,−19,3.8,
Cn1cncc1C[C@H](N)C(=O)O [3-METHYL-L-HISTIDINE],55,−15,7.39,
Nc1ccc(C(=O)O)cc1 [4-AMINO-BENZOIC ACID],−12,"52, 52",7.67,"G Factor (G7) [1, 3]: 96; K Factor [1]: 1, 1"
CCCCc1ccc(C(=O)O)cc1 [4-BUTYLBENZOIC ACID],,,5.94,
CCc1ccc(C(=O)O)cc1 [4-ETHYLBENZOIC ACID],,,6,K Factor [1]: 1 and 2
CCCCCCc1ccc(C(=O)O)cc1 [4-HEXYLBENZOIC ACID],,,6.13,
CCCCCCCCc1ccc(C(=O)O)cc1 [4-OCTYL BENZOIC ACID],−665,−2314,7.45,
CCCCCc1ccc(C(=O)O)cc1 [4-PENTYLBENZOIC ACID],−88,−96,,
CNCC(O)c1ccc(O)c(O)c1 (stereo not drawn) [ADRENALINE],68,49,10.29,pH (H20) ([2]; listed as adrenaline): ~10
N[C@@H](CC(=O)O)C(=O)O [ASPARTIC ACID],−45,,5.75,"G Factor (G7) [1, 3]: −17"
O=C(O)c1ccccc1 [BENZOIC ACID],28,−3.1,4.21,K Factor [1]: 1
O=S(=O)(O)CCN(CCO)CCO [BES],,77 and 57,6.64,"K Factor [1]: 1, 1"
NCCC(=O)N[C@@H](Cc1cnc[nH]1)C(=O)O [CARNOSINE],35,−8,8.32,
NC(=O)NCCC[C@H](N)C(=O)O [CITRULLINE],46,39,7.71,K Factor [1]: 1
C/C1=C2/[N-][C@H]([C@H](CC(N)=O)[C@@]2(C)CCC(=O)NC[C@@H](C)OP(=O)([O-])O[C@H]2[C@@H](O)[C@@H](n3cnc4cc(C)c(C)cc43)O[C@@H]2CO)[C@]2(C)N=C(/C(C)=C3N=C(/C=C4N=C1[C@@H](CCC(N)=O)C\4(C)C)[C@@H](CCC(N)=O)[C@]\3(C)CC(N)=O)[C@@H](CCC(N)=O)[C@]2(C)CC(N)=O.[CH2-][C@H]1O[C@@H](n2cnc3c(N)ncnc32)[C@H](O)[C@@H]1O.[Co] [COENZYME B12],51,−17,,
CN(CC(=O)O)C(=N)N [CREATINE],28,0.34,7.54,
N[C@@H](CS)C(=O)O [CYSTEINE],−50,−35,7.24,
N[C@@H](Cc1cc(I)c(O)c(I)c1)C(=O)O [DIIODOTYROSINE],,−48,7.23,"G Factor (G7) ([1]; Table 1, days 4-7 after transfection): −8*"
CCOC(=O)c1ccc(C(C)=O)cc1 [ETHYL 4-ACETYLBENZOATE],42,49,7.59,K Factor [1]: 1

Molecule,G Factor (G14) [1],X Factor [1],pH (H20) [2],also measured
CCOC(=O)CCCC(C)=O [ETHYL 4-ACETYLBUTYRATE],58,51,5.98,K Factor [1]: 1
Nc1nc2ncc(CNc3ccc(C(=O)N[C@@H](CCC(=O)O)C(=O)O)cc3)nc2c(=O)[nH]1 [FOLIC ACID],24,−1.4,6,
N[C@@H](CCC(=O)O)C(=O)O [GLUTAMIC ACID],,,4.2,K Factor [1]: 2
O=C(O)CCCC(=O)O [GLUTARIC ACID],−77,22,3.85,
C/C1=C2/[N-][C@H]([C@H](CC(N)=O)[C@@]2(C)CCC(=O)NC[C@H](C)OP(=O)([O-])O[C@H]2[C@@H](O)[C@@H](n3cnc4cc(C)c(C)cc43)O[C@@H]2CO)[C@]2(C)N=C(/C(C)=C3N=C(/C=C4N=C1[C@@H](CCC(N)=O)C\4(C)C)[C@@H](CCC(N)=O)[C@]\3(C)CC(N)=O)[C@@H](CCC(N)=O)[C@]2(C)CC(N)=O.[CH3-].[Co+3] [METHYLCOBALAMIN],25,1,,
NCCC[C@H](N)C(=O)O [ORNITHINE],28,16,,
"O=C(O)CCCCC1CCSS1 (stereo not drawn) [α-lipoic acid, lipoic acid]",,,,results when substituted for benzoate buffer ([1]; used in conjunction with chondroitin sulfate as in plates 6 or 13 of Table 9): comparable results
"N-carboxymethylchitosan N,S-sulfate",,,,effect on transient expression when present before or during the transfection step [1]: blocking effect
carboxymethylcellulose,,,,effect on transient expression when present before or during the transfection step [1]: blocking effect
dermatan sulfate,,,,effect on transient expression when present before or during the transfection step [1]: blocking effect
ethyoxy benzoic acid,,,,effect on transient expression [1]: capable of prolonging transient expression
gentamicin [reference compound],,,,effect on protein production ([1]; control plates 1A (with gentamicin) vs 1B (no gentamicin)): somewhat suppressed protein production
heparan sulfate,,,,effect on transient expression when present before or during the transfection step [1]: blocking effect
heparin [reference compound],,,,effect on transient expression when added after the transfection step [1]: effective in enhancing transient expression; also recorded: enhance transient expression; effect on transient expression when present before or during the transfection step [1]: blocking effect; also recorded: blocked transient expression
hydroxypropyl guaran,,,,effect on transient expression [1]: capable of prolonging transient expression; effect on transient expression ([1]; listed as Hydroxypropyl guarans): enhance transient expression to some degree
iso-propyl benzoic acid,,,,effect on transient expression [1]: capable of prolonging transient expression
isobutyl benzoic acid,,,,effect on transient expression [1]: capable of prolonging transient expression
methoxy benzoic acid,,,,effect on transient expression [1]: capable of prolonging transient expression
t-butyl benzoic acid,,,,effect on transient expression [1]: capable of prolonging transient expression
